The source of these data is US5639777A, “1,4,5-triphenyl pyrazolyl compounds for the treatment of inflammation and inflammation-related disorders” (G.D. Searle & Co., priority 1996, dated 1997).

For data set [1], the system named is carrageenan-induced foot edema in rats. As to the kind of experiment: Rat Carrageenan Foot Pad Edema Test. The format is in vivo, Male Sprague-Dawley rats. The following applies: @ 10 mg/kg body weight; oral; foot volume three hours after carrageenan injection. The procedure: The carrageenan foot edema test was performed with materials, reagents and procedures essentially as described by Winter, et al., (Proc. soc. Exm. Biol. Med., 111, 544 (1962)). Male Sprague-Dawley rats were selected in each group so that the average body weight was as close as possible. Rats were fasted with free access to water for over sixteen hours prior to the test. The rats were dosed orally (1 mL)with compounds suspended in vehicle containing 0.5% methylcellulose and 0.025% surfactant, or with vehicle alone. One hour later a subplantar injection of 0.1 mL of 1% solution of carrageenan/sterile 0.9% saline was administered and the volume of the injected foot was measured with a displacement plethysmometer connected to a pressure transducer with a digital indicator. Three hours after the injection of the carrageenan, the volume of the foot was again measured. The average foot swelling in a group of drug-treated animals was compared with that of a group of placebo-treated animals and the percentage inhibition of edema was determined (Otterness and Bliven, Laboratory Models for Testing NSAIDs, in Non-steroidal Anti-Inflammatory Drugs, (J. Lombardino, ed. 1985)).

For data set [2] the following is noted: compared with other common anti-inflammatory agents; cited from earlier work.

For the molecule `CS(=O)(=O)c1ccc(-c2c(-c3ccc(F)cc3)c(C(F)(F)F)nn2-c2ccccc2)cc1` [Example 1, 4-(4-Fluorophenyl)-5-[4-(methylsulfonyl)phenyl]-1-phenyl-3-(trifluoromethyl)pyrazole], the “% Inhibition (rat paw edema)” value in data set [1] worked out at 20%.

On to `O=C(O)Cc1c(-c2ccccc2)c(-c2ccccc2)nn1-c1ccccc1` [Isofezolac, 1,3,4-triphenyl-1H-pyrazole-5-acetic acid], for which, in data set [2], the ulcerogenic result was “as ulcerogenic as other common anti-inflammatory agents”.
